Patent US20260184708A1, “PYRIDAZINONES AND METHODS OF USE THEREOF” (GFB (ABC), LLC, priority 2017, published 2026)

What follows are compounds tested against T1, TRPC5 (Homo sapiens, UniProt Q9UL62) (assay: TRPC5 Fluorescence Assay - FLIPR format (HEK-TREx hTRPC5, Riluzole stimulation)). Settings: Table 9, read-out: hTRPCS-FLIPR IC50.
T1 construct: expressed in transfected cells; host or cells: HEK 293
T1 sequence (Q9UL62 1-973): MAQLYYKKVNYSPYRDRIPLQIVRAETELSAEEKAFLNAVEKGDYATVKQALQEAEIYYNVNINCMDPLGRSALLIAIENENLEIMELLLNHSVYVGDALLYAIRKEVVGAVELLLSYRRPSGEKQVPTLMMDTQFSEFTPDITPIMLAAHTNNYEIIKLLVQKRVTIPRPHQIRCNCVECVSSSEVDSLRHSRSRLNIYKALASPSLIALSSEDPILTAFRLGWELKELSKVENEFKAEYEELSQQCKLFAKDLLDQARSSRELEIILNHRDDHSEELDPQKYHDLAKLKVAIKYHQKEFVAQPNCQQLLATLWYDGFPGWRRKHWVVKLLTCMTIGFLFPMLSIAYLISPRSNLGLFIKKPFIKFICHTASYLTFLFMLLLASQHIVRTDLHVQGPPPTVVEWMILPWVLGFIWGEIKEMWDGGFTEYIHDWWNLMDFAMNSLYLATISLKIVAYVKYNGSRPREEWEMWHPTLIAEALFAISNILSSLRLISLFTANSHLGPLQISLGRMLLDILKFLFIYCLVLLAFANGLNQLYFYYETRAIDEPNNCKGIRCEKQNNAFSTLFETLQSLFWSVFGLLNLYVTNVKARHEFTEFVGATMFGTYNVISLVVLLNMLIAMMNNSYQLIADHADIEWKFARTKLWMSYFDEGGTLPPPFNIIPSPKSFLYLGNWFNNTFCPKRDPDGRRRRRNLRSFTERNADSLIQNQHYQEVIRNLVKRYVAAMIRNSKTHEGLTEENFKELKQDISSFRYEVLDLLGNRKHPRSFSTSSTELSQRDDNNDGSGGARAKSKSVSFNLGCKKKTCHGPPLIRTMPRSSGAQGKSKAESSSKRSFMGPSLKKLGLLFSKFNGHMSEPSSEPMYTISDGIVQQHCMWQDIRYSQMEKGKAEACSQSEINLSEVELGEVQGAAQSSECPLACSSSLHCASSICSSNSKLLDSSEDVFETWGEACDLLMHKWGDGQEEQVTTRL
Format: cell-based
Experimental: • Cell line: ICLN-001633 • Base Cell: HEK • Channel: TRPC5 • Species: Human • Thaw ID: multiple • Passage: multiple
FLIPR Assay Buffer (Earls Balanced Salt Solution (EBSS) was prepared as follows:
Test Agent Preparation: Compounds were made up to, or supplied as, a 10 mM stock solution generally using DMSO as the vehicle. 10-point dose response curves were generated using the Echo-550 acoustic dispenser. Compound source plates were made by serially diluting compound stocks to create 10 mM, 1 mM, and 0.1 mM solutions in DMSO into Echo certified LDV plates. The Echo then serially spotted 100% DMSO stock solutions into source dose response plates to generate a 4-fold dilution scheme. 100% DMSO was added to the spotted dose response plates to bring the final volume to 5 μl. […] of the dose response stock plate was then spotted into pre-incubation and stimulation assay plates. 50 μl of pre-incubation buffer and 100 μl of stimulation buffer was then added to the plates resulting in a final assay test concentration range of 30 μM to 0.0001 μM with a final DMSO concentration of 0.3%.
Experimental Methods: Cells expressing TRPC5 (HEK-TREx hTRPC5) are plated onto 384 well, black PDL-coated microplates and maintained in TRPC5 growth media the day prior to use for experiments. TRPC5 expression is induced by the application of […] tetracycline at the time of plating. Media is removed from the plates and 10 μl of 4 μM of Fluo-4 AM (mixed with equal volume of Pluronic F-127) in EBSS is added to the cells. Cells are incubated at room temperature, protected from light, for 60-90 minutes. After the incubation period, the dye is removed and replaced with 10 μl of EBSS. Cell, pre-incubation and stimulation plates are loaded onto the FLIPR-II and the assay is initiated. The FLIPR measures a 10 second baseline and then adds 10 μl of 2× compounds (or controls). Changes in fluorescence are monitored for an additional 5 minutes. After the 5 minute pre-incubation, 20 μl of 2× Riluzole (with 1× compound or controls) is added to the cell plate. The final Riluzole stimulation concentration in the assay is 30 μM. After the Riluzole addition, changes in fluorescence are monitored for an additional 5 minutes.
Test Agent Effect: Test agent modulation of TRPC5 calcium response was determined as follows. After the Riluzole, fluorescence was monitored for a 5 minute period. The maximum relative fluorescene response (minus the control response of 1 μM of the control inhibitor) was captured and exported from the FLIPR. Test agent effect was calculated as % inhibition using the following formula: % inhibition=((RFU Test Agent−Plate Average RFU REF INHIB)/(Plate Average RFU Control−Plate Average RFU REF INHIB))×100
Work on `C[C@@H](c1ccccc1C(F)(F)F)N1CCN(c2cn[nH]c(=O)c2Cl)CC1=O` [drawing 1044] yielded an IC50 of 0.01 to 1000 nM.
Work on `C[C@H](c1ccc(F)cc1C(F)(F)F)N1C[C@@H](C)N(c2cn[nH]c(=O)c2Cl)CC1=O` [drawing 1048] yielded an IC50 of 0.01 to 1000 nM.
Work on `C[C@@H](c1ccc(F)cc1C(F)(F)F)N1CCN(c2cn[nH]c(=O)c2Cl)CC1=O` [drawing 1049] yielded an IC50 of 0.01 to 1000 nM.

Same assay, conditions: Table 10, read-out: TRPCS-FLIPR IC50
In the case of `[2H]c1nc2c(n1Cc1ccccc1C(F)(F)F)CCN(c1cn[nH]c(=O)c1Cl)C2`, the IC50 is reported as 0.01 to 1000 nM.
`C[C@H](c1ccc(F)cc1C(F)F)n1nc(C(N)=O)c2c1CCN(c1cn[nH]c(=O)c1Cl)C2` was tested, and the IC50 was 0.01 to 1000 nM.
Compound `COCc1ccccc1Cn1cnc2c1CCN(c1cn[nH]c(=O)c1Cl)C2` [drawing 1053] has an IC50 of 0.01 to 1000 nM.
In the case of `COCc1ncccc1Cn1cnc2c1CCN(c1cn[nH]c(=O)c1Cl)C2` [drawing 1065], the IC50 is reported as 0.01 to 1000 nM.
`C[C@@H]1Cc2c(nnn2[C@@H](C)c2ccccc2C(F)(F)F)CN1c1cn[nH]c(=O)c1Cl` [drawing 1071] showed an IC50 of 0.01 to 1000 nM.
For `C[C@H](c1ccccc1C(F)(F)F)n1nnc2c1CCN(c1cn[nH]c(=O)c1Cl)[C@H]2C` [drawing 1078], the IC50 was 0.01 to 1000 nM.
Compound `CCS(=O)(=O)c1nc2c(n1Cc1ccccc1C(F)(F)F)CCN(c1cn[nH]c(=O)c1Cl)C2` [drawing 1079] has an IC50 of 0.01 to 1000 nM.
Compound `O=c1[nH]ncc(N2CCc3c(c(=O)[nH]n3Cc3ccccc3C(F)(F)F)C2)c1Cl` [drawing 1081] has an IC50 of 0.01 to 1000 nM.
In the case of `C[C@@H]1Cc2c(nnn2[C@@H](C)c2ccc(F)cc2C(F)(F)F)CN1c1cn[nH]c(=O)c1Cl` [drawing 1085], the IC50 is reported as 0.01 to 1000 nM.
`C[C@H](c1ccc(F)cc1C(F)(F)F)n1nnc2c1CCN(c1cn[nH]c(=O)c1Cl)[C@H]2C` [drawing 1092] was tested, and the IC50 was 0.01 to 1000 nM.
In the case of `C[C@H](c1ccccc1C(F)F)n1nnc2c1CCN(c1cn[nH]c(=O)c1Cl)C2` [drawing 1100], the IC50 is reported as 0.01 to 1000 nM.
Work on `C[C@@H](c1ccccc1C(F)F)n1nnc2c1CCN(c1cn[nH]c(=O)c1Cl)C2` [drawing 1106] yielded an IC50 of 0.01 to 1000 nM.
`C[C@@H](c1ccc(F)cc1C(F)F)n1nnc2c1CCN(c1cn[nH]c(=O)c1Cl)C2` [drawing 1107] gave an IC50 of 0.01 to 1000 nM.
`CNC(=O)c1nn([C@H](C)c2ccccc2C(F)F)c2c1CN(c1cn[nH]c(=O)c1Cl)CC2` [drawing 1113] was tested, and the IC50 was 0.01 to 1000 nM.
For `CC(c1ccc(F)cc1C(F)F)n1nc(C(N)=O)c2c1CCN(c1cn[nH]c(=O)c1Cl)C2` (centres unmarked) [drawing 1114], the IC50 was 0.01 to 1000 nM.
With `CNC(=O)c1nn(Cc2ccc(F)cc2C(F)F)c2c1CN(c1cn[nH]c(=O)c1Cl)CC2` [drawing 1117] the IC50 was 0.01 to 1000 nM.
With `C[C@@H]1Cc2c(c(C(N)=O)nn2Cc2ccccc2C(F)(F)F)CN1c1cn[nH]c(=O)c1Cl` [drawing 1118] the IC50 was 0.01 to 1000 nM.
For `COC[C@H](c1ccccc1C(F)(F)F)n1cnc2c1CCN(c1cn[nH]c(=O)c1Cl)C2` [drawing 1120], the IC50 was 0.01 to 1000 nM.
`C[C@H](c1ccccc1C(F)(F)F)n1nc(C(N)=O)c2c1CCN(c1cn[nH]c(=O)c1Cl)C2` [drawing 1123] showed an IC50 of 0.01 to 1000 nM.
Compound `C[C@@H](c1cccnc1CC(F)F)n1nnc2c1CCN(c1cn[nH]c(=O)c1Cl)C2` [drawing 1125] has an IC50 of 0.01 to 1000 nM.
Work on `O=c1[nH]ncc(N2CCc3c(nnn3Cc3ccc(F)cc3CC(F)(F)F)C2)c1Cl` [drawing 1131] yielded an IC50 of 0.01 to 1000 nM.
`C[C@H](c1ccccc1Cl)n1nnc2c1CCN(c1cn[nH]c(=O)c1Cl)C2` [drawing 1133] gave an IC50 of 0.01 to 1000 nM.
`CNC(=O)c1nc2c(n1Cc1ccccc1C(F)(F)F)CCN(c1cn[nH]c(=O)c1Cl)C2` [drawing 1134] was tested, and the IC50 was 0.01 to 1000 nM.
For `NC(=O)c1nc2c(n1Cc1ccccc1C(F)(F)F)CCN(c1cn[nH]c(=O)c1Cl)C2` [drawing 1135], the IC50 was 0.01 to 1000 nM.
For `O=c1[nH]ncc(N2CCc3c(ncn3Cc3ccc(F)cc3Cl)C2)c1Cl` [drawing 1136], the IC50 was 0.01 to 1000 nM.
Work on `O=c1[nH]ncc(N2CCc3c(ncn3Cc3ccccc3Cl)C2)c1Cl` [drawing 1139] yielded an IC50 of 0.01 to 1000 nM.
`C[C@@H](c1ccccc1Cl)n1nnc2c1CCN(c1cn[nH]c(=O)c1Cl)C2` [drawing 1140] showed an IC50 of 0.01 to 1000 nM.
Compound `CS(=O)(=O)c1nc2c(n1Cc1ccccc1C(F)(F)F)CCN(c1cn[nH]c(=O)c1Cl)C2` [drawing 1142] has an IC50 of 0.01 to 1000 nM.
`CN(c1ncc2c(n1)CN(c1cn[nH]c(=O)c1Cl)C2)c1ccc(F)cc1Cl` [drawing 1144] gave an IC50 of 0.01 to 1000 nM.
`CCN(c1ncc2c(n1)CN(c1cn[nH]c(=O)c1Cl)C2)c1ccccc1Cl` [drawing 1148] gave an IC50 of 0.01 to 1000 nM.
Work on `O=c1[nH]ncc(N2CCc3c(Cc4ccc(F)cc4C(F)(F)F)n[nH]c3C2)c1Cl` [drawing 1153] yielded an IC50 of 0.01 to 1000 nM.
`CCc1ncccc1N(C)c1ncc2c(n1)CN(c1cn[nH]c(=O)c1Cl)C2` [drawing 1154] was tested, and the IC50 was 0.01 to 1000 nM.
